Reference: paper PMC11578313, “Miniaturized Modular Click Chemistry‐enabled Rapid Discovery of Unique SARS‐CoV‐2 M^pro Inhibitors With Robust Potency and Drug‐like Profile” (Advanced Science, 2024)
Where “and” joins values, the source holds several entries; their conditions need not be identical. Equal entries are not always repeated. Where two headings read alike, the source gives them in different places.

Tests used:
HCoV‐229E = experiment: microbe, parasite or virus in culture; assay type: cell-based
[1] = system: SARS‐CoV‐2 S and N proteins; assay type: cell-based
Kunming mice = experiment: Acute toxicity experiment; assay type: in vivo
Experimental: The acute and subacute toxicity of C5N17B were assessed in Kunming mice. In the acute toxicity study, one group received an oral dose of 500 mg kg^−1 of C5N17B. In the subacute toxicity study, a different group was administered a lower dose of 50 mg kg^−1 of C5N17B. Each experimental set included a control group that received only the vehicle treatment.
Kunming mice were group housed both during acclimation and the study period. The animal room environment was controlled to maintain specific target conditions, including a temperature range of 20 °C to 25 °C, relative humidity levels between 40% and 70%, and an alternating schedule of artificial light for 12 h followed by 12 h of darkness. The age of Kunming mice in the acute/subacute toxicity study was 3–4 weeks, and the body weights were ≈20 g. All animal experiments related to this study were approved by the ethics committee of Cheeloo College of Medicine (approval No. 230014), Shandong University (Jinan, China) Procedures performed in the studies were guided by the ethical standards of the institution.
A group of Kunming mice (comprising three males and three females) was supplied by the Animal Experimental Center of Shandong University. […]

[2] = for Plasma concentration (Calculated Concentration): mouse plasma
[3] = C5N17B+Ritonavir, PO 10 mg/kg, individual mice 1#-3#, 10 mg/kg
[4] = C5N17B+Ritonavir, po 10 mg/kg, based on predicted Clast, individual mice, 10 mg/kg
[5] = C5N17B+Ritonavir, po 10 mg/kg, dose-normalised, individual mice, 10 mg/kg
[6] = C5N17B+Ritonavir, po 10 mg/kg, non-compartmental output, individual mice, 10 mg/kg

Structure (SMILES): Cc1cncc(C(=O)N2C[C@H]3CC[C@@H](C2)N3[C@H](c2cccc(F)c2)c2cn(CCc3ccsc3)nn2)c1 [Compound C5N17B]
- EC50 (HCoV‐229E; Human coronavirus 229E, MRC5, read-out: EC50 ± SD, HCoV‐229E): > 100 µM
- EC50 ± SD, HCoV‐229E (HCoV‐229E; MRC‐5): failed to inhibit
- SARS‐CoV‐2 S and N proteins in virus‐infected cells [1]: dose‐dependent reduction
- body weight compared to the control group, acute toxicity (Kunming mice; 500 mg kg^−1, 7 days): no significant changes in body weight
- fatalities or abnormal behavior, acute toxicity (Kunming mice; oral dose of 500 mg kg^−1, Kunming mice): No fatalities or abnormal behavior
- AUC0-∞ [2, 3]: 13462 ng·h/mL and 18653 ng·h/mL
- AUC(0-t) [2, 3]: 13105 ng·h/mL and 11834 ng·h/mL
- Cmax [2, 3]: 2150 ng/mL and 2470 ng/mL
- MRT0-t [2, 3]: 3.43 h and 3.39 h
- MRT0-∞ [2, 3]: 3.03 h and 3.63 h and 7.98 h
- T1/2 [2, 3]: 1.87 h and 2.03 h and 5.52 h
- Plasma concentration (Calculated Concentration) ([2]; C5N17B+Ritonavir, PO 10 mg/kg, 5 min (5min), individual mice, 10 mg/kg): 861 ng/mL and 439 ng/mL
- Plasma concentration (Calculated Concentration) ([2]; C5N17B+Ritonavir, PO 10 mg/kg, 0.5 h (30min), individual mice, 10 mg/kg): 1220 ng/mL and 1720 ng/mL
- Plasma concentration (Calculated Concentration) ([2]; C5N17B+Ritonavir, PO 10 mg/kg, 1 h, individual mice, 10 mg/kg): 1750 ng/mL and 1960 ng/mL
- Plasma concentration (Calculated Concentration) ([2]; C5N17B+Ritonavir, PO 10 mg/kg, 2 h, individual mice, 10 mg/kg): 2270 ng/mL and 2140 ng/mL
- Plasma concentration (Calculated Concentration) ([2]; C5N17B+Ritonavir, PO 10 mg/kg, 4 h, individual mice, 10 mg/kg): 1920 ng/mL and 2150 ng/mL
- AUCINF_pred [2, 4]: 13994.4 ng·h/mL and 18824.1 ng·h/mL
- Cl_F_pred [2, 4]: 15.3694 mL/min/kg and 11.9096 mL/min/kg and 8.85392 mL/min/kg
- MRTINF_pred [2, 4]: 3.269 h and 3.905 h and 8.0548 h
- Vz_F_pred [2, 4]: 2.48776 L/kg and 2.09319 L/kg and 4.22695 L/kg
- AUCINF_D_pred ([2]; C5N17B+Ritonavir, po 10 mg/kg, dose-normalised, based on predicted Clast, individual mice, 10 mg/kg): 1084.41 kg·ng·h/mL/mg and 1399.44 kg·ng·h/mL/mg and 1882.41 kg·ng·h/mL/mg
- AUCINF_D_obs [2, 5]: 1039.52 kg·ng·h/mL/mg and 1346.22 kg·ng·h/mL/mg and 1865.31 kg·ng·h/mL/mg
- AUClast_D [2, 5]: 968.565 kg·ng·h/mL/mg and 1310.48 kg·ng·h/mL/mg and 1183.41 kg·ng·h/mL/mg
- Cmax_D [2, 5]: 227 kg·ng/mL/mg and 215 kg·ng/mL/mg and 247 kg·ng/mL/mg
- Tlag ([2]; C5N17B+Ritonavir, po 10 mg/kg, non-compartmental output, individual mice): 0 h
- AUCINF_obs [2, 6]: 13462.2 ng·h/mL and 18653.1 ng·h/mL
- AUCall [2, 6]: 13104.8 ng·h/mL and 11834.1 ng·h/mL
- AUClast [2, 6]: 13104.8 ng·h/mL and 11834.1 ng·h/mL
- AUMClast [2, 6]: 25373.2 h*h*ng/ml and 44928.8 h*h*ng/ml and 40086.7 h*h*ng/ml
- Cl_F_obs [2, 6]: 12.3804 mL/min/kg and 8.93505 mL/min/kg
- Cmax [2, 6]: 2150 ng/mL and 2470 ng/mL
- HL_Lambda_z [2, 6]: 1.87 h and 2.03 h and 5.515 h
- Lambda_z [2, 6]: 0.3707 h⁻¹ and 0.3414 h⁻¹ and 0.1257 h⁻¹
- MRTINF_obs [2, 6]: 3.035 h and 3.628 h and 7.982 h
- MRTlast [2, 6]: 3.428 h and 3.387 h
- Tlast [2, 6]: 6 h and 8 h
- Vz_F_obs [2, 6]: 2.5952 L/kg and 2.17594 L/kg and 4.26569 L/kg
- Clast_pred ([2]; C5N17B+Ritonavir, po 10 mg/kg, predicted from terminal fit, individual mice, 10 mg/kg): 429.412 ng/mL and 303.677 ng/mL and 878.481 ng/mL
- plasma exposure (AUC0‐t) with ritonavir higher than when administered alone ([2]; p.o. 10 mg kg^−1): ~300 fold
